Consider 6 compounds from ChEMBL document CHEMBL4619822, “Novel Cyclic Tetramer Compounds as PCSK9 Inhibitors for Treating Metabolic Disorders” (ACS Med Chem Lett, 2020).

Each structure is given as a SMILES string.

Sequence of Proprotein convertase subtilisin/kexin type 9 (Homo sapiens) (Q8NBP7 31-152 limits assumed): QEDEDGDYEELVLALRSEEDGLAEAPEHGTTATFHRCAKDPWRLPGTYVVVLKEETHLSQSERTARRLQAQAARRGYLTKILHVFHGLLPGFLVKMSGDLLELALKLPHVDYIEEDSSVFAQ
Sequence of Proprotein convertase subtilisin/kexin type 9 (Homo sapiens) (Q8NBP7 153-692 limits assumed): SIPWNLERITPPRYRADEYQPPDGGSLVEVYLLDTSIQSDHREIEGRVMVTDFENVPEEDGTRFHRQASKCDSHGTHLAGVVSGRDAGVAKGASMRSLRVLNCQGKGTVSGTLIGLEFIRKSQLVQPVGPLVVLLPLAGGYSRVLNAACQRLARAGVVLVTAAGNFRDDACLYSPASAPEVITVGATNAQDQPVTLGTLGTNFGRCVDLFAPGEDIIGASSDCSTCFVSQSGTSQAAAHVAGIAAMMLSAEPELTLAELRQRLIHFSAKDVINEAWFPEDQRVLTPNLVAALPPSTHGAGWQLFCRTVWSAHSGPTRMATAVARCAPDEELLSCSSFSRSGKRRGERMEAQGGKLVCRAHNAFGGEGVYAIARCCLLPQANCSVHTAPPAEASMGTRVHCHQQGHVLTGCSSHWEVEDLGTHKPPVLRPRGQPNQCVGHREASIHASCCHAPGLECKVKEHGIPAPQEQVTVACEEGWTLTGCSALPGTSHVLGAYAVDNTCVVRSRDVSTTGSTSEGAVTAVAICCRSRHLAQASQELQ

The assay concerns the target Proprotein convertase subtilisin/kexin type 9 (Homo sapiens) (UniProt Q8NBP7). Nature of the assay: Inhibition of human PCSK9 by Alexa Fluor 647 staining based TR-FRET assay relative to control. In general terms: TR-FRET usually uses a lanthanide donor and a delayed reading to cut background.
`COC[C@@H]1NC(=O)[C@H](C)N(Cc2ncc(Cl)cc2Oc2ccc(-c3cnc(CN(C)C)n3C)cc2)C(=O)C[C@@H](Cc2ccccc2)C(=O)N2CCC[C@@](Cc3ccc(Cl)cc3)(C2)NC1=O` gave an Imax of 103%.

In turn, `CNCc1ncc(-c2ccc(Oc3cc(Cl)cc(F)c3CN3C(=O)C[C@@H](CC(F)(F)F)C(=O)N4CCC[C@@](Cc5ccc(Cl)cc5)(C4)N(C)C(=O)[C@H](COC)NC(=O)[C@@H]3C)cc2)n1C` returned an Imax of 105%.

Compound `CNCc1ncc(-c2ccc(Oc3cc(Cl)ccc3CN3C(=O)C[C@@H](Cc4ccccc4)C(=O)N4CCC[C@@](Cc5ccc(Cl)cc5)(C4)NC(=O)[C@H](CO)NC(=O)[C@@H]3C)cc2)n1C` came in with an Imax of 105%.

In turn, `C[C@H]1C(=O)N[C@@H](CO)C(=O)N[C@@]2(Cc3ccc(Cl)cc3)CCCN(C2)C(=O)[C@H](CC2CC2)CC(=O)N1Cc1c(F)cc(Cl)cc1Oc1ccc(-c2cnc(CNC3CCC3)n2C)cc1` showed an Imax of 100%.

`C[C@H]1C(=O)N[C@@H](CO)C(=O)N[C@@]2(Cc3ccc(Cl)cc3)CCCN(C2)C(=O)[C@H](Cc2ccccc2)CC(=O)N1Cc1ccc(Cl)c(F)c1Oc1ccc(-c2cnc(CN(C)C)n2C)cc1` came in with an Imax of 101%.

`COC[C@@H]1NC(=O)[C@H](C)N(Cc2ccc(Cl)cc2Oc2ccc(-c3cnc(CN(C)C)n3C)nc2)C(=O)C[C@@H](CC(F)(F)F)C(=O)N2CCC[C@@](Cc3ccc(Cl)cc3)(C2)N(C)C1=O` registered an Imax of 113%.
